Reference: ChEMBL document CHEMBL4303084, “Identification of antiviral drug candidates against SARS-CoV-2 from FDA-approved drugs” (2020)
Starred links: 1 amine or outer side, 2 acyl side, 3 side chain; linkers in the order of their positions; H or OH if unused. Positions of bridges follow the written chain, without caps; N, C: chain ends. Non-standard residues stand in square brackets, D forms with d. Residues, ends and D or L forms follow the SMILES beside them. *: point of attachment. pTerphenylCO(4''-OnC5H11) = CCCCCOc1ccc(-c2ccc(-c3ccc(C(=O)*)cc3)cc2)cc1; Orn(4R-OH,5R-OH) = O=C([C@H](C[C@@H](O)[C@@H](O)N[*:3])N[*:1])[*:2]; hTyr(3S-OH,4S-OH) = N[C@H](C(=O)O)[C@H](O)[C@@H](O)c1ccc(O)cc1; Pro(3S-OH,4S-Me) = C[C@H]1CN[C@H](C(=O)O)[C@H]1O; Hyp = O=C(O)[C@@H]1C[C@@H](O)CN1

Key:
SARS-CoV-2 = assay: microbe, parasite or virus in culture; format: functional, organism-based, Chlorocebus sabaeus; details: Severe acute respiratory syndrome coronavirus 2, Vero, 24 h
[1] = Cell viability measured by CellTiter-Glo assay in Vero cells at MOI 0.05 after 72hr; details: chlorocebus sabaeus
[2] = Selectivity index for antiviral vs cytotoxic activity in Vero cells (CC50/IC50); details: monkey, Vero cells

SMILES | IC50 (SARS-CoV-2) [µM] | CC50 at 72 h ([1]; Vero cells) [µM] | selectivity ratio [2] | CC50 at 72 h ([1]; vero) [µM]
CC1(C)C=Cc2c(c3c(c4c(=O)c(-c5ccc(O)cc5)coc24)OC(C)(C)CC3)O1 | 3.22 | 9.89 | 3.07 | 
CCC(CC)COC(=O)[C@H](C)N[P@](=O)(OC[C@H]1O[C@@](C#N)(c2ccc3c(N)ncnn23)[C@H](O)[C@@H]1O)Oc1ccccc1 |  | > 25 |  | 
CCN1CCN(Cc2ccc(Nc3ncc(F)c(-c4cc(F)c5nc(C)n(C(C)C)c5c4)n3)nc2)CC1 [ABEMACICLIB] | 6.62 | > 50 |  | 
CCN(CC)Cc1cc(Nc2ccnc3cc(Cl)ccc23)ccc1O [AMODIAQUINE] | 5.15 | > 50 |  | 
CCCCCOc1ccc(-c2ccc(-c3ccc(C(=O)N[C@H]4C[C@@H](O)[C@@H](O)NC(=O)[C@@H]5[C@@H](O)[C@@H](C)CN5C(=O)[C@H]([C@@H](C)O)NC(=O)[C@H]([C@H](O)[C@@H](O)c5ccc(O)cc5)NC(=O)[C@@H]5C[C@@H](O)CN5C(=O)[C@H]([C@@H](C)O)NC4=O)cc3)cc2)cc1 [ANIDULAFUNGIN] ({pTerphenylCO(4''-OnC5H11)}-[Orn(4R-OH,5R-OH)]T[Hyp][hTyr(3S-OH,4S-OH)]T[Pro(3S-OH,4S-Me)]; lactam 1-C) | 4.64 | > 50 | 10.8 | 
Cc1c(-c2ccc(O)cc2)n(Cc2ccc(OCCN3CCCCCC3)cc2)c2ccc(O)cc12 [BAZEDOXIFENE] |  | 15 |  | 
COc1cc2c3cc1Oc1c(OC)c(OC)cc4c1[C@@H](Cc1ccc(O)c(c1)Oc1ccc(cc1)C[C@@H]3N(C)CC2)N(C)CC4 [BERBAMINE] | 7.87 | > 50 | 6.35 | 
CN(C)C(=O)COC(=O)Cc1ccc(OC(=O)c2ccc(NC(=N)N)cc2)cc1 [CAMOSTAT] | > 50 | > 50 |  | 
COc1ccc2cc1Oc1ccc(cc1)C[C@H]1c3c(cc4c(c3Oc3cc5c(cc3OC)CCN(C)[C@@H]5C2)OCO4)CCN1C [CEPHARANTHINE] | 4.47 | > 50 | 11.2 | 
Cc1cc(Nc2ncc(Cl)c(Nc3ccccc3S(=O)(=O)C(C)C)n2)c(OC(C)C)cc1C1CCNCC1 [CERITINIB] | 2.86 | 6.84 | 2.39 | 
CCN(CC)CCCC(C)Nc1ccnc2cc(Cl)ccc12 (stereo unspecified) [CHLOROQUINE] |  | > 150 |  | 
CC(C)C(=O)OCC(=O)[C@@]12O[C@H](C3CCCCC3)O[C@@H]1C[C@H]1[C@@H]3CCC4=CC(=O)C=C[C@]4(C)[C@H]3[C@@H](O)C[C@@]12C [CICLESONIDE] | 4.33 | > 50 | 11.6 | 
CCN(CC)CCOc1ccc(C(=C(Cl)c2ccccc2)c2ccccc2)cc1 [CLOMIPHENE] | 5.36 | 15 | 2.8 | 
C[C@H]1O[C@@H](O[C@H]2[C@@H](O)C[C@H](O[C@H]3[C@@H](O)C[C@H](O[C@H]4CC[C@@]5(C)[C@H](CC[C@@H]6[C@@H]5CC[C@]5(C)[C@@H](C7=CC(=O)OC7)CC[C@]65O)C4)O[C@@H]3C)O[C@@H]2C)C[C@H](O)[C@@H]1O [DIGITOXIN] | < 0.23 | > 50 | 214 | 
C[C@H]1O[C@@H](O[C@H]2[C@@H](O)C[C@H](O[C@H]3[C@@H](O)C[C@H](O[C@H]4CC[C@@]5(C)[C@H](CC[C@@H]6[C@@H]5C[C@@H](O)[C@]5(C)[C@@H](C7=CC(=O)OC7)CC[C@]65O)C4)O[C@@H]3C)O[C@@H]2C)C[C@H](O)[C@@H]1O [DIGOXIN] | 0.19 | > 50 | 257 | 
CC(C)=CCCC1(C)C=Cc2c(O)c3c(c(CC=C(C)C)c2O1)OC12C(=CC4CC1C(C)(C)OC2(C/C=C(/C)C(=O)O)C4O)C3=O (stereo unspecified) [DIHYDROGAMBOGIC ACID] | 13.4 | 9.85 | 0.74 | 
CC/C(=C(/c1ccc(OCCN(C)C)cc1)c1cccc(O)c1)c1ccccc1 [DROLOXIFENE] | 6.6 | 15.8 | 2.4 | 
CCCCc1oc2ccc(NS(C)(=O)=O)cc2c1C(=O)c1ccc(OCCCN(CCCC)CCCC)cc1 [DRONEDARONE] | 3.92 | 8.75 | 2.23 | 
CC(C)(C)c1ccc(C(=O)CCCN2CCC(OC(c3ccccc3)c3ccccc3)CC2)cc1 [EBASTINE] |  |  |  | 15.4
CC1=NN(c2ccc(C)c(C)c2)C(=O)/C1=N\Nc1cccc(-c2cccc(C(=O)O)c2)c1O [ELTROMBOPAG] | 8.27 | > 50 |  | 

SMILES | IC50 (SARS-CoV-2) [µM] | CC50 at 72 h ([1]; Vero cells) [µM] | selectivity ratio [2] | CC50 at 72 h ([1]; vero) [µM]
COc1ccc2cc1Oc1ccc(cc1)C[C@H]1c3cc(c(OC)cc3CCN1C)Oc1c(OC)c(OC)cc3c1[C@H](C2)N(C)CC3 [FANCHININ] | 3 | 14.9 | 4.97 | 
CCc1nc(C(N)=O)c(Nc2ccc(N3CCC(N4CCN(C)CC4)CC3)c(OC)c2)nc1NC1CCOCC1 [GILTERITINIB] | 6.76 | 37.2 | 5.5 | 
Oc1c(Cl)cc(Cl)c(Cl)c1Cc1c(O)c(Cl)cc(Cl)c1Cl [HEXACHLOROPHENE] | 0.9 | 19.3 | 21.6 | 
CCCCCC(=O)O[C@]1(C(C)=O)CC[C@H]2[C@@H]3CCC4=CC(=O)CC[C@]4(C)[C@H]3CC[C@@]21C [HYDROXYPROGESTERONE CAPROATE] | 6.3 | > 50 | 7.93 | 
CC(C)(C)c1cc(C(C)(C)C)c(NC(=O)c2c[nH]c3ccccc3c2=O)cc1O [IVACAFTOR] | 6.57 | 27.3 | 3.76 | 
CC(=O)O[C@H]1C[C@H](O[C@H]2[C@@H](O)C[C@H](O[C@H]3[C@@H](O)C[C@H](O[C@H]4CC[C@@]5(C)[C@H](CC[C@@H]6[C@@H]5C[C@@H](O)[C@]5(C)[C@@H](C7=CC(=O)OC7)CC[C@]65O)C4)O[C@@H]3C)O[C@@H]2C)O[C@H](C)[C@H]1O[C@@H]1O[C@H](CO)[C@@H](O)[C@H](O)[C@H]1O [LANATOSIDE C] | > 50 | > 50 | 1 | 
CN(C)C(=O)C(CCN1CCC(O)(c2ccc(Cl)cc2)CC1)(c1ccccc1)c1ccccc1 [LOPERAMIDE] |  | 29.3 |  | 
Cc1cccc(C)c1OCC(=O)N[C@@H](Cc1ccccc1)[C@@H](O)C[C@H](Cc1ccccc1)NC(=O)[C@H](C(C)C)N1CCCNC1=O [LOPINAVIR] | 9.12 | > 50 |  | 
CCCCCCO[C@@H](C)c1cccc(-c2csc(NC(=O)c3cc(Cl)c(/C=C(\C)C(=O)O)c(Cl)c3)n2)c1OC [LUSUTROMBOPAG] | 3.78 | 14.6 | 3.87 | 
OC(c1cc(C(F)(F)F)nc2c(C(F)(F)F)cccc12)C1CCCCN1 (stereo unspecified) [MEFLOQUINE] | 4.33 | 14 | 3.22 | 
c1ccc2c(c1)Sc1ccccc1N2CC1CN2CCC1CC2 (stereo unspecified) [MEQUITAZINE] | 7.28 | 27.3 | 3.76 | 
O=C(Nc1ccc([N+](=O)[O-])cc1Cl)c1cc(Cl)ccc1O [NICLOSAMIDE] |  | > 50 |  | 
CC(C)=CCc1c2c(c3occ(-c4ccc(O)cc4)c(=O)c3c1O)C=CC(C)(C)O2 [OSAJIN] | 3.87 | 11.4 | 2.95 | 
C=CC(=O)Nc1cc(Nc2nccc(-c3cn(C)c4ccccc34)n2)c(OC)cc1N(C)CCN(C)C [OSIMERTINIB] | 3.26 | 13.2 | 4.05 | 
C[C@@H]1O[C@@H](O[C@H]2C[C@@H](O)[C@]3(CO)[C@H]4[C@H](O)C[C@]5(C)[C@@H](C6=CC(=O)OC6)CC[C@]5(O)[C@@H]4CC[C@]3(O)C2)[C@H](O)[C@H](O)[C@H]1O [OUABAIN OCTAHYDRATE] | < 0.097 | > 50 | 516 | 
O=C(Nc1cc(Cl)cc(Cl)c1O)c1c(O)c(Cl)cc(Cl)c1Cl [OXYCLOZANIDE] | 3.71 | > 50 |  | 
OC1(c2ccc(Cl)c(C(F)(F)F)c2)CCN(CCCC(c2ccc(F)cc2)c2ccc(F)cc2)CC1 [PENFLURIDOL] | 5.01 | 8.77 | 1.75 | 
C1CCC(C(CC2CCCCN2)C2CCCCC2)CC1 (stereo unspecified) [PERHEXILINE] | 6.38 | 8.67 | 1.36 | 
Nc1ccc(/N=N/c2ccccc2)c(N)n1 [PHENAZOPYRIDINE] | 28 | > 50 |  | 
C[C@@H]1O[C@@H](O[C@@H]2C=C3CC[C@@H]4[C@H](CC[C@]5(C)[C@@H](c6ccc(=O)oc6)CC[C@]45O)[C@@]3(C)CC2)[C@H](O)[C@H](O)[C@H]1O [PROSCILLARIDIN] | 2.04 | > 50 | 24.5 | 
